According to patent US5350864A, “Aminoalkylcarbamyl derivatives of forskolin as intermediates for the synthesis of useful forskolin derivatives” (The United States of America as represented by the …, priority 1990, dated 1994):
Entries after “also recorded” stand apart in the source; their conditions may differ. Like-named read-outs stand apart in the source and are kept apart here.

Experiments:
P-glycoprotein [1] = target: T1, P-glycoprotein (Homo sapiens, UniProt P08183)
adenylate cyclase [2] = assay: Photolabelling of bovine brain membranes, SDS gel electrophoresis; type: binding
Method: (§1) Derivative 20 (6-AIPPS-Fsk) is incubated with partially purified preparations of bovine brain adenylate cyclase, photolyzed, and then the radioactive proteins are analyzed by SDS gel electrophoresis. […] 6-AIPPS-Fsk can also label adenylate cyclase in crude membranes. 6-AIPPS-Fsk is incubated with bovine brain membranes, photolyzed, and the radioactive proteins are analyzed by SDS gel electrophoresis.

adenylate cyclase [3] = assay: Filtration binding assay, ^125 I-labelled derivative 19 (6-^125 I-HPP-Fsk) to bovine brain membranes; conditions: for inhibition of 6-^125 I-HPP-Fsk binding: 60 min
Description: (§2) Derivative 19 (6-^125 I-HPP-Fsk) was used to develop a binding assay for adenylate cyclase (Example 4). […] Therefore, a filtration assay can be used to separate the bound from free ligand and determine the amount of high affinity binding. […] Analogs of forskolin that activate adenylate cyclase inhibit the binding of 6-^125 I-HPP-Fsk to membranes. The ability of an agent to inhibit 6-^125 I-HPP-Fsk binding to membranes is therefore indicative of its ability to stimulate adenylate cyclase.
Binding of 6-^125 I-HPP-Fsk to Membranes--Crude membranes from bovine brain were incubated for 60 minutes at […] 20° C. with 20,000 cpm of 6-^125 I-HPP-Fsk. Binding equilibrium was reached by 45 minutes and was constant for at least 2 hours (data not shown). The incubations were carried out at 20° C. for 60 minutes in 12×75 glass test tubes in a total volume of 0.4 mL […] Tris-HCl buffer, pH 7.4. The membranes (0.40 mg/tube) were incubated in the presence of 5 mM MgCl2 and 10 mM NaF. The assay was terminated by the addition of 5 mL of cold Tris-HCl buffer to the tubes and rapid filtration over Whatman GF/C filters using a Brandel cell harvester. The assay was terminated as described above and the filters counted in a gamma counter. The nonspecific binding was calculated as the amount of label not displaced by 20 uM forskolin. The non specific binding was about 20% of the total bound.

glucose transporter [4] = conditions: cited from earlier work
adenylate cyclase [5] = conditions: literature, cited from earlier work
cancer cells = conditions: certain cancer cells; literature; cited from earlier work
[6] = literature; cited from earlier work
adenylate cyclase [7] = assay: Photolabelling of partially purified bovine brain adenylate cyclase, SDS gel electrophoresis; type: binding
Method: as §1

P-glycoprotein [8] = assay: Binding to the P-glycoprotein
glucose transporter [9] = target: T2, glucose transporter (Homo sapiens, UniProt P11166); assay: Filtration binding assay, ^125 I-labelled derivative 8 (7-^125 I-HPP-Fsk) to human red blood cell membranes; conditions: for inhibition of 7-^125 I-HPP-Fsk binding: human red blood cell membranes
T2 construct: Crude membranes from human red blood cells; from tissue; host or cells: human red blood cells, membranes
T2 sequence (P11166 1-492): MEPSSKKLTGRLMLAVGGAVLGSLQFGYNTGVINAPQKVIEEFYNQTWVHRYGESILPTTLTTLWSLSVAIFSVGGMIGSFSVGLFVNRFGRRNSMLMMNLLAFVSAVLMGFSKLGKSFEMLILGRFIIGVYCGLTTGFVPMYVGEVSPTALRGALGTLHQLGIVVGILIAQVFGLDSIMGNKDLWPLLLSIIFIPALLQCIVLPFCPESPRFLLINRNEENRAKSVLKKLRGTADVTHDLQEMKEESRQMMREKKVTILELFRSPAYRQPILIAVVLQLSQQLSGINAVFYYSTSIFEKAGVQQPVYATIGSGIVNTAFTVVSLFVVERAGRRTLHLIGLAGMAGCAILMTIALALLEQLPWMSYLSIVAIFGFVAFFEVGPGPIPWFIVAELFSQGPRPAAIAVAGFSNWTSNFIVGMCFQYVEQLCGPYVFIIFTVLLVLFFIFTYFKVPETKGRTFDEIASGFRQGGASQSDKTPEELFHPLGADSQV
Method: Binding of 7-^125 IHPP-Fsk to Membranes--Crude membranes from human red blood cells were incubated for 60 minutes at 20° C. with 20,000 cpm of 7-^125 IHPP-Fsk. […] The incubations were carried out at 20° C. for 60 minutes in 12×75 glass test tubes in a total volume of 0.4 mL 50 mM Tris-HCl buffer, pH 7.4. The assay was terminated by the addition of 4 mL of cold Tris-HCl buffer to the tubes at rapid filtration over Whatman GF/C filters using a Brandel cell harvester. The assay was terminated as described above and the filters counted in a gamma counter. The nonspecific binding was calculated as the amount of label not displaced by 20 μM forskolin.

[10] = test system: bovine brain adenylate cyclase; assay: Activation of bovine brain adenylate cyclase; type: biochemical; conditions: relative to forskolin
[11] = Stability to heating in base; type: physicochemical; conditions: heating in 0.1N KOH in methanol, two hours, 60° C.
Method: The 7-aminoethylcarbamate can be synthesized using the 1,9-dimethylformamide acetal of 7-desacetylforskolin as starting material (see synthetic scheme of FIG. 2). The selective reactivity of carbonyldiimidazole (CDI) with the equatorial 7β-hydroxyl group is exploited to form the 7-acylimidazole intermediate. The reaction of the 7-acylimidazole intermediate with ethylenediamine produces the 7-aminoethylcarbamate of forskolin (see 3 in FIG. 1 and Example 1). The same procedure is carried out to produce 7β-aminobutylcarbamate (5), 7β-aminohexylcarbamate (6), and the 7β-aminoheptylcarbamate (7) of forskolin. The 7β-aminoalkylcarbamates of forskolin are very stable compounds. The 7β-aminoethylcarbamate of forskolin is stable to heating in 0.1N KOH in methanol for two hours at 60° C.

Water solubility = type: physicochemical; conditions: relative to forskolin
adenylate cyclase [12] = assay: Binding of 6-^125 I-HPP-Fsk to membranes from human platelets
Description: as §2

P-glycoprotein [13] = target: T1, P-glycoprotein; assay: Photolabelling of membranes from human ovarian carcinoma cell line overexpressing P-glycoprotein
glucose transporter [14] = assay: Binding of 7-^125 I-HPP-Fsk to rat muscle
Description: (§3) 7-^125 I-HPP-Fsk also binds with high affinity to other tissues including bovine brain, rat heart, rat muscle, and human platelets. The binding of 7-^125 I-HPP-Fsk to these tissues is inhibited by D-glucose and cytochalasin B. Therefore, 7-^125 I-HPP-Fsk binds with high affinity to the glucose transporter in diverse tissues.

glucose transporter [15] = target: T3, glucose transporter (Homo sapiens, UniProt P11169); assay: Binding of 7-^125 I-HPP-Fsk to human platelets
T3 construct: other tissues including bovine brain, rat heart, rat muscle, and human platelets; from tissue; host or cells: human platelets
T3 sequence (P11169 1-496): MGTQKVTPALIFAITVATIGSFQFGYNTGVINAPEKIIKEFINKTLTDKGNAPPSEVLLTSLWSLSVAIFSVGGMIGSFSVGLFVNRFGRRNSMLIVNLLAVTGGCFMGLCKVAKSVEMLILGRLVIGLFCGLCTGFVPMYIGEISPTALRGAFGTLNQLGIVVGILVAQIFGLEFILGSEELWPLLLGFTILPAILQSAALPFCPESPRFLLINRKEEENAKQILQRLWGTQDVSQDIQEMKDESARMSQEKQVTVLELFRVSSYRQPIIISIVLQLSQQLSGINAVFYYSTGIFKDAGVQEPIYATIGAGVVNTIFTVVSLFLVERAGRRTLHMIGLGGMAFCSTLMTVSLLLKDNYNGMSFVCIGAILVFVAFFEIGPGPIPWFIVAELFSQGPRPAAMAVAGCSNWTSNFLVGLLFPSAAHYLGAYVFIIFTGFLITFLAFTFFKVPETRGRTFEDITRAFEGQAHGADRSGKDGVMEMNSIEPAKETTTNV
Description: as §3

glucose transporter [16] = conditions: read-out: affinity of cytochalasin B; cited from earlier work
glucose transporter [17] = assay: Binding of 7-^125 I-HPP-Fsk to bovine brain
Description: as §3

glucose transporter [18] = assay: Binding of 7-^125 I-HPP-Fsk to rat heart
Description: as §3

glucose transporter [19] = target: T2, glucose transporter; assay: Photolabelling of human red blood cell membranes, SDS gel electrophoresis; type: binding
Method: Derivative 9 (7-AIPPS-Fsk) is incubated with human red blood cell membranes, photolyzed, and then the radioactive proteins were analyzed by SDS gel electrophoresis.

T1 sequence (P08183 whole entry): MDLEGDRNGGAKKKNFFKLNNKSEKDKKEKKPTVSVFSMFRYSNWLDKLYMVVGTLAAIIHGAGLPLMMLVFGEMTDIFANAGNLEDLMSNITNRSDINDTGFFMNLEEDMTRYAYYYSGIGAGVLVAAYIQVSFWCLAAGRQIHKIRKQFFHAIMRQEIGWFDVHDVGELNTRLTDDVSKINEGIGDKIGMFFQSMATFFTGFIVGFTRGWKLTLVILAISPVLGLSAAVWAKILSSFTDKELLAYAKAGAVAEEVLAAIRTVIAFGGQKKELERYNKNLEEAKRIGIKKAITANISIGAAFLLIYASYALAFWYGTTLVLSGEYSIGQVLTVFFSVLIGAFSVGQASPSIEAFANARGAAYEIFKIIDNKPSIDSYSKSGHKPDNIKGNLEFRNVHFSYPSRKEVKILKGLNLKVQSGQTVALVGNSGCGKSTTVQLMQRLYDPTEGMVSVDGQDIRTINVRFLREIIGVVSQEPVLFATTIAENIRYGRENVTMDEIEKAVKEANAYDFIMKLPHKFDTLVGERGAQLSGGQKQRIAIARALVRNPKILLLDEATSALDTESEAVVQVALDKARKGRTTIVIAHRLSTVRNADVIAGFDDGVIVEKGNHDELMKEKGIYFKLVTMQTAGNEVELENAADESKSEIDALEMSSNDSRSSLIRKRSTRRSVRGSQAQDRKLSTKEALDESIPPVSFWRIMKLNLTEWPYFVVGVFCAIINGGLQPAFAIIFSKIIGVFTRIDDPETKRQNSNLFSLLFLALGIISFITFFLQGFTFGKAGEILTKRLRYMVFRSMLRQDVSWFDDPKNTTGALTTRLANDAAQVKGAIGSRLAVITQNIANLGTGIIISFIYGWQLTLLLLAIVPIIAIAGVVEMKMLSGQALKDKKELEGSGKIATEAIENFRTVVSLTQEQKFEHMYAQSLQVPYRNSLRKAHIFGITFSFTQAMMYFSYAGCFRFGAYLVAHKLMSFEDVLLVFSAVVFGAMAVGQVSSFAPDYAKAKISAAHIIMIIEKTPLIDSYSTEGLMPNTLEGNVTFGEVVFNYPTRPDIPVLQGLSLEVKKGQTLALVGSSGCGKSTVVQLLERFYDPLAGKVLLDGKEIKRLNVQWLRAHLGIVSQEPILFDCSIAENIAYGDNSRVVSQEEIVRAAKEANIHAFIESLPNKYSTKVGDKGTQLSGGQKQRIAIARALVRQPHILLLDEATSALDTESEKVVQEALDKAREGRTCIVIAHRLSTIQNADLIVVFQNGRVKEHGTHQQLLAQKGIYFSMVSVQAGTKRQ

C=C[C@@]1(C)CC(=O)[C@@H]2[C@@]3(C)CCCC(C)(C)[C@@H]3[C@H](O)[C@H](OC(C)=O)[C@@]2(C)O1 [1,9-dideoxyforskolin]
inhibition of labelling by 6-AIPPS-Fsk (P-glycoprotein [1]): more potent at inhibiting the labelling by 6-AIPPS-Fsk than forskolin | inhibition of labelling by 6-AIPPS-Fsk (adenylate cyclase [2]): not inhibited | inhibition of 6-^125 I-HPP-Fsk binding (adenylate cyclase [3]; bovine brain membranes, 20° C.): not by 1,9-dideoxyforskolin | inhibition of glucose transport (glucose transporter [4]; adipocyte membranes, literature): inhibit glucose transport in adipocyte membranes | activation of adenylate cyclase (adenylate cyclase [5]): inability | activation of adenylate cyclase (adenylate cyclase [5]; listed as 1,9-Dideoxyforskolin): does not activate adenylate cyclase; also recorded: not active at adenylate cyclase | sensitization to cytotoxic effects of drugs (cancer cells): can sensitize certain cancer cells to the cytotoxic effects of drugs

C=C[C@@]1(C)CC(=O)[C@]2(O)[C@@]3(C)[C@@H](O)CCC(C)(C)[C@@H]3[C@H](O)[C@H](OC(C)=O)[C@@]2(C)O1 [Compound 1, forskolin]
cardiotonic effects [6]: marked cardiotonic effects | inhibition of labelling by 6-AIPPS-Fsk (adenylate cyclase [7]): inhibited | inhibition of 6-^125 I-HPP-Fsk binding (adenylate cyclase [3]; bovine brain membranes, 20° C.): inhibited | binding to P-glycoprotein (P-glycoprotein [8]): bind to the P-glycoprotein | potency at activating adenylate cyclase versus inhibiting glucose transport (glucose transporter [4]; relative to adenylate cyclase activation): equipotent | binding affinity / selectivity (glucose transporter [9]): binds to the glucose transporter in human red blood cells | inhibition of 7-^125 I-HPP-Fsk binding (glucose transporter [9]): inhibited | activation of adenylate cyclase (adenylate cyclase [5]): activate the enzyme adenylate cyclase and increase intracellular cyclic AMP | sensitization to cytotoxic effects of drugs (cancer cells): can sensitize certain cancer cells to the cytotoxic effects of drugs

C=C[C@@]1(C)CC(=O)[C@]2(O)[C@@]3(C)[C@@H](O)CCC(C)(C)[C@@H]3[C@H](O)[C@H](OC(=O)NCCN)[C@@]2(C)O1 [Compound 3, 7-aminoethyl-carbamylforskolin]
extent of stimulation of adenylate cyclase [10]: stimulate adenylate cyclase to a greater extent than forskolin | stability [11]: stable | water solubility (Water solubility): enhanced water solubility | potency relative to 6-aminoethylcarbamyl derivative 4 at inhibiting binding of 7-^125 I-HPP-Fsk (glucose transporter [9]; erythrocyte membranes): about 30 fold

C=C[C@@]1(C)CC(=O)[C@]2(O)[C@@]3(C)[C@@H](O)CCC(C)(C)[C@@H]3[C@H](OC(=O)NCCNC(=O)CCc3ccc(O)c([125I])c3)[C@H](OC(C)=O)[C@@]2(C)O1 [Derivative 19]
Kd (adenylate cyclase [12]): ~25 nM | time binding was constant (adenylate cyclase [3]; 20° C.): at least 2 hours | time to binding equilibrium (adenylate cyclase [3]; 20° C.): ≤ 45 min | selectivity of 6-^125 I-HPP-Fsk binding (adenylate cyclase [3]; adenylate cyclase versus glucose transporter, listed as 6-^125 I-HPP-Fsk): not binding with high affinity to the glucose transporter in brain tissue; also recorded: specific for adenylate cyclase | binding affinity (adenylate cyclase [3]; bovine brain membranes): high affinity | Kd (adenylate cyclase [3]; membranes from bovine brain): ~25 nM

COc1cccc2c1C(=O)c1c(O)c3c(c(O)c1C2=O)C[C@@](O)(C(=O)CO)C[C@@H]3O[C@H]1C[C@H](N)[C@H](O)[C@H](C)O1 [adriamycin]
inhibition of labelling by 6-AIPPS-Fsk (P-glycoprotein [13]): inhibited

C=C1C(C)C2C(Cc3ccccc3)NC(=O)C23OC(=O)/C=C/C(O)CCCC(C)C/C=C/C3C1O (stereo not drawn) [cytochalasin B]
inhibition of 7-^125 I-HPP-Fsk binding (glucose transporter [14]): inhibited | inhibition of 7-^125 I-HPP-Fsk binding (glucose transporter [15]): inhibited | inhibition of 6-^125 I-HPP-Fsk binding (adenylate cyclase [3]; bovine brain membranes, 20° C.): not inhibited | Kd (glucose transporter [16]): ~1000 nM | inhibition of 7-^125 I-HPP-Fsk binding (glucose transporter [17]): inhibited | inhibition of 7-^125 I-HPP-Fsk binding (glucose transporter [9]): inhibition of binding; also recorded: inhibited | inhibition of 7-^125 I-HPP-Fsk binding (glucose transporter [9]; listed as cytochlasin B): inhibited | inhibition of 7-^125 I-HPP-Fsk binding (glucose transporter [18]): inhibited | inhibition of labelling by 7-AIPPS-Fsk (glucose transporter [19]): inhibited
